In patent US9796711B2, “Substituted pyrazolo[3,4-b]pyridin-6-carboxylic acids and method of use” (AbbVie S.àr.l., priority 2015, dated 2017):

How the values were obtained:
[1] = biological target: T1, ΔF508-CFTR (Homo sapiens, UniProt P13569, DEL508-508); test: CFTR cell surface levels using HRP-tagged ΔF508-CFTR expressing CFBE cells, in the presence of a co-corrector; type: cell-based; conditions: HRP-tagged ΔF508-CFTR expressing CFBE cells, in the presence of 3 μM co-corrector; for EC50: read-out: EC50
T1 construct: host or cells: CFBE41o-, doxycycline-inducible
Summary of the method: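 Cells were seeded with 0.5 μg/mL doxycycline and held 68 h at 37 °C. Test compounds plus 3 μM co-corrector (final 0.1% DMSO) were then added for 20 h at 33 °C. Washed cells received HRP substrate, and luminescence was normalized between DMSO and 3 μM co-corrector controls.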

[2] = biological target: T1, ΔF508-CFTR; test: CFTR cell surface levels using HRP-tagged ΔF508-CFTR expressing CFBE cells, intrinsic corrector capacity; type: cell-based; conditions: HRP-tagged ΔF508-CFTR CFBE41o- cells, compounds alone (intrinsic corrector capacity), 20 hours at 33° C.; for % Activation: positive control 3 μM corrector; for EC50: read-out: EC50
Summary of the method: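 Here the cells express ΔF508-CFTR with horseradish peroxidase inserted in extracellular loop 4, so only rescued channel at the surface gives luminescent signal. Compounds act on their own, 20 h at the reduced temperature of 33 °C; values are percent activity relative to DMSO and a 3 μM corrector.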

T1 sequence (P13569 with tags, fused parts or gaps DEL508-508): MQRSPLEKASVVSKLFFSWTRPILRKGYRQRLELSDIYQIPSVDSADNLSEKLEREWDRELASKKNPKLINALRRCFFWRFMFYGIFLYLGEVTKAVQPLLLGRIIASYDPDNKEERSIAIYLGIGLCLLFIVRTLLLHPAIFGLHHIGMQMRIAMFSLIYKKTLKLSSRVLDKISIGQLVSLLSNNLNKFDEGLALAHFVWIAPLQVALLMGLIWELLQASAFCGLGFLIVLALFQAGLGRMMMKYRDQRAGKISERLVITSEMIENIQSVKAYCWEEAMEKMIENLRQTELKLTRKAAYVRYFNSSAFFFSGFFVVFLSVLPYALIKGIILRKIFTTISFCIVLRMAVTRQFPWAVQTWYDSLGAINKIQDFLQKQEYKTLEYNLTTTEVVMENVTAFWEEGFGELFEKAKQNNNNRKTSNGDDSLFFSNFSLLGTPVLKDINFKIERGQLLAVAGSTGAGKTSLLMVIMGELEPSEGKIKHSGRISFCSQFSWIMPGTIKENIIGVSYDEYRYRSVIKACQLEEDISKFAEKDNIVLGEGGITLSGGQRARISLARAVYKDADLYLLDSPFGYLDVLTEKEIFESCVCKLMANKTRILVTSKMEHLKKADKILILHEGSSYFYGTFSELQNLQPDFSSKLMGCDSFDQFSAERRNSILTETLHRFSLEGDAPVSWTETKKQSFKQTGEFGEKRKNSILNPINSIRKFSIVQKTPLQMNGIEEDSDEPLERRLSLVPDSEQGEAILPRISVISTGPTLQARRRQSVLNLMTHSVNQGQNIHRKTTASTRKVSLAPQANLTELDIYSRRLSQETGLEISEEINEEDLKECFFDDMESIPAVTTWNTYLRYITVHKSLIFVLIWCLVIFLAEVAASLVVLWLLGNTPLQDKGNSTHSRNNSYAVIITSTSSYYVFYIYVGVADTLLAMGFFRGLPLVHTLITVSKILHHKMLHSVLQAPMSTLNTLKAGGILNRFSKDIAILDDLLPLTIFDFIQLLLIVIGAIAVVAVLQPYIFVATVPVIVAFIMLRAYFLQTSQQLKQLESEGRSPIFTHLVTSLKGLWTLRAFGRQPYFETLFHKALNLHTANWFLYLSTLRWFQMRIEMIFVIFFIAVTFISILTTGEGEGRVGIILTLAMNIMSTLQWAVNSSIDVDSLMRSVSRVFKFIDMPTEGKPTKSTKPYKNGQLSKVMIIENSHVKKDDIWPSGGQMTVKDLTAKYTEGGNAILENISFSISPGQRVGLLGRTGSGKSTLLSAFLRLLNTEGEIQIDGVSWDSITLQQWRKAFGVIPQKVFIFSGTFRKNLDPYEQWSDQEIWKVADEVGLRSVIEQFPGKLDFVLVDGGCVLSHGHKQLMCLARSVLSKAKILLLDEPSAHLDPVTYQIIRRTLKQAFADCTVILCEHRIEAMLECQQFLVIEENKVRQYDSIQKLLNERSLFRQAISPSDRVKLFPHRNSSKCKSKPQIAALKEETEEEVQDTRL

| SMILES | % Activation [1] [%] | EC50 [1] [µM] | % Activation [2] [%] | EC50 [2] [µM] |
| --- | --- | --- | --- | --- |
| CC(C)c1nn(-c2ccc(F)c(F)c2)c2nc(C(=O)O)cc(-c3ccc(N4CCOCC4)cc3)c12 [compound 243, 1-(3,4-difluorophenyl)-4-[4-(morpholin-4-yl)phenyl]-3-(propan-2-yl)-1H-pyrazolo[3,4-b]pyridine-6-carboxylic acid] | 402.73 | 0.408 | 224.73 | 0.66 |
| CC(C)c1nn(-c2cc(F)cc(F)c2)c2nc(C(=O)O)cc(-c3ccc(N(C)C4CCOCC4)cc3)c12 [compound 245, 1-(3,5-difluorophenyl)-4-{4-[methyl(oxan-4-yl)amino]phenyl}-3-(propan-2-yl)-1H-pyrazolo[3,4-b]pyridine-6-carboxylic acid] | 508.37 | 0.627 | 267.15 | 0.777 |
| CC(C)c1nn(-c2cc(F)cc(F)c2)c2nc(C(=O)O)cc(-c3ccc(N(C)C4CCOCC4)nc3)c12 [compound 246, 1-(3,5-difluorophenyl)-4-{6-[methyl(oxan-4-yl)amino]pyridin-3-yl}-3-(propan-2-yl)-1H-pyrazolo[3,4-b]pyridine-6-carboxylic acid] | 457.57 | 0.467 | 212.75 | 0.464 |
| N#CC1CCN(c2ccc(-c3cc(C(=O)O)nc4c3c(C3CCC3)nn4-c3cccc(N4CCCC4)c3)cc2)CC1 [compound 247, 4-[4-(4-cyanopiperidin-1-yl)phenyl]-3-cyclobutyl-1-[3-(pyrrolidin-1-yl)phenyl]-1H-pyrazolo[3,4-b]pyridine-6-carboxylic acid] | 569.07 | 0.332 | 390.27 | 0.42 |
| N#CC1CCN(c2ccc(-c3cc(C(=O)O)nc4c3c(C3CCC3)nn4-c3cccc(N4CCCC4)c3)cn2)CC1 [compound 248] | 606.83 | 0.422 | 405.93 | 0.55 |
| CC(C)c1nn(-c2cccc(N3CCCC3)c2)c2nc(C(=O)O)cc(-c3ccc(N(C)C4CCOCC4)cc3)c12 [compound 249, 4-{4-[nethyl(oxan-4-yl)amino]phenyl}-3-(propan-2-yl)-1-[3-(pyrrolidin-1-yl)phenyl]-1H-pyrazolo[3,4-b]pyridine-6-carboxylic acid] | 596.2 | 0.288 | 410.6 | 0.475 |
| CC(C)c1nn(-c2cccc(N3CCCC3)c2)c2nc(C(=O)O)cc(-c3ccc(N(C)C4CCOCC4)nc3)c12 [compound 250, 4-{6-[methyl(oxan-4-yl)amino]pyridin-3-yl}-3-(propan-2-yl)-1[3-(pyrrolidin-1-yl)phenyl]-1H-pyrazolo[3,4-b]pyridine-6-carboxylic acid] | 622.03 | 0.508 | 394.7 | 0.456 |
| CN(c1ccc(-c2cc(C(=O)O)nc3c2c(C2CCC2)nn3-c2cccc(N3CCCC3)c2)cc1)C1CCOCC1 [compound 251, 3-cyclobutyl-4-{4-[methyl(oxan-4-yl)amino]phenyl}-1-[3-(pyrrolidin-1-yl)phenyl]-1H-pyrazolo[3,4-b]pyridine-6-carboxylic acid] | 577.73 | 0.353 | 389.2 | 0.438 |
| CN(c1ccc(-c2cc(C(=O)O)nc3c2c(C2CCC2)nn3-c2cccc(N3CCCC3)c2)cn1)C1CCOCC1 [compound 252, 3-cyclobutyl-4-{6-[methyl(oxan-4-yl)amino]pyridin-3-yl}-1-[3-(pyrrolidin-1-yl)phenyl]-1H-pyrazolo[3,4-b]pyridine-6-carboxylic acid] | 630.25 | 0.505 | 398.4 | 0.698 |
| COCCN(C)c1ccc(-c2cc(C(=O)O)nc3c2c(C(C)C)nn3-c2cccc(N3CCCC3)c2)cn1 [compound 253, 4-{6-[(2-methoxyethyl)(methyl)amino]pyridin-3-yl}-3-(propan-2-yl)-1-[3-(pyrrolidin-1-yl)phenyl]-1H-pyrazolo[3,4-b]pyridine-6-carboxylic acid] | 568.13 | 0.425 | 375.87 | 0.656 |
| CC(C)c1nn(C2CCCCC2)c2nc(C(=O)O)cc(-c3ccc(N(C)C4CCOCC4)cc3)c12 [compound 254, 1-cyclohexyl-4-{4-[methyl(oxan-4-yl)amino]phenyl}-3-(propan-2-yl)-1H-pyrazolo[3,4-b]pyridine-6-carboxylic acid] | 417.67 | 0.333 | 234.6 | 0.611 |
| CC(=O)N1CCC2CN(c3cc(C(=O)O)nc4c3c(C(C)C)nn4-c3cccc(C)c3)CCC21 (centres unmarked) [compound 255, 4-(1-acetyloctahydro-5H-pyrrolo[3,2-c]pyridin-5-yl)-1-(3-methylphenyl)-3-(propan-2-yl)-1H-pyrazolo[3,4-b]pyridine-6-carboxylic acid] | 302.97 | 0.294 | 120.77 | 0.442 |
| Cc1cccc(-n2nc(C(C)C)c3c(N4CCC5C(CCN5CC#N)C4)cc(C(=O)O)nc32)c1 (centres unmarked) [compound 256, 4-[1-(cyanomethyl)octahydro-5H-pyrrolo[3,2-c]pyridin-5-yl]-1-(3-methylphenyl)-3-(propan-2-yl)-1H-pyrazolo[3,4-b]pyridine-6-carboxylic acid] | 362.25 | 2.05 | 180 | 3.34 |
| Cc1cccc(-n2nc(C(C)C)c3c(N4CCC(S(C)(=O)=O)CC4)cc(C(=O)O)nc32)c1 [compound 257, 4-[4-(methanesulfonyl)piperidin-1-yl]-1-(3-methylphenyl)-3-(propan-2-yl)-1H-pyrazolo[3,4-b]pyridine-6-carboxylic acid] | 440.2 | 0.788 | 260.4 | 2.53 |
| Cc1cccc(-n2nc(C(C)C)c3c(N4CC5(CCOCC5)C4)cc(C(=O)O)nc32)c1 [compound 258, 1-(3-methylphenyl)-4-(7-oxa-2-azaspiro[3.5]nonan-2-yl)-3-(propan-2-yl)-1H-pyrazolo[3,4-b]pyridine-6-carboxylic acid] | 364.3 | 0.919 | 169.7 | 1.29 |
| CC(C)c1nn(-c2cccc(N3CCCC3)c2)c2nc(C(=O)O)cc(-c3cnc(N4CCC(C#N)CC4)nc3)c12 [compound 259, 4-[2-(4-cyanopiperidin-1-yl)pyrimidin-5-yl]-3-(propan-2-yl)-1-[3-(pyrrolidin-1-yl)phenyl]-1H-pyrazolo[3,4-b]pyridine-6-carboxylic acid] | 673.9 | 1.01 | 438.95 | 1.13 |
| CC(C)c1nn(-c2cccc(C(F)(F)F)c2)c2nc(C(=O)O)cc(-c3ccc(N4CCC(C#N)CC4)nc3)c12 [compound 260, 4-[6-(4-cyanopiperidin-1-yl)pyridin-3-yl]-3-(propan-2-yl)-1-[3-(trifluoromethyl)phenyl]-1H-pyrazolo[3,4-b]pyridine-6-carboxylic acid] | 554.15 | 0.517 | 326.4 | 0.784 |
